# Measurements from patent US10577373B2, “TYK2 inhibitors and uses thereof” (Nimbus Lakshmi, Inc., priority 2017, dated 2020).
# Tested on: IL-12 induced STAT4 phophorylation mediated by Tyk2/JAK2 (heterodimeric complex)
# Experiment: IL-12 Induced pSTAT4 in Human PBMC
# Type: cell-based
# Conditions: 1.7 ng/mL IL-12
# From the text: The IL-12 Induced pSTAT4 assay evaluates the inhibition of IL-12 induced STAT4 phophorylation mediated by Tyk2/JAK2 (heterodimeric complex).
row,Structure (SMILES),IC50 [nM]
1,CNc1cc(-c2cn([C@H]3CCCOC3)c3ncccc23)nc2c(C(=O)N[C@H]3CC[C@@H]3OC)cnn12 [I-1283],< 100
2,CNc1cc(Nc2cccn([C@H]3CCC[C@@H](OC)C3)c2=O)nc2c(C(=O)NCC(C)(C)CO)cnn12 [I-861],< 100
3,CNc1cc(-c2cn(C3CCOCC3)c3ncc(F)cc23)nc2c(C(=O)N[C@H]3CC[C@@H]3O)cnn12 [I-1314],< 100
4,CNc1cc(Nc2cccn([C@@H]3CC[C@H]3O)c2=O)nc2c(C(=O)N[C@@H]3CC[C@H]3OC)cnn12 [I-1309],< 100
5,CNc1cc(Nc2cccn([C@@H]3CCCN(CCF)C3)c2=O)nc2c(C(=O)N[C@H]3CC[C@@H]3OC)cnn12 [I-1382],< 100
6,CNc1cc(Nc2cccn([C@H]3CC[C@](C)(O)CC3)c2=O)nc2c(C(=O)N[C@H]3C[C@H]3F)cnn12 [I-372],< 100
7,[2H]C([2H])([2H])Oc1ncccc1Nc1cc(NC)n2ncc(C(=O)N[C@H]3CC[C@@H]3O)c2n1 [I-411],< 100
8,CNc1cc(Nc2cccn([C@H]3CCC[C@H]3O)c2=O)nc2c(C(=O)N[C@H]3CC[C@@H]3OC)cnn12 [I-1373],< 100
9,CNc1cc(Nc2cccn([C@H]3CCC[C@@H](O)C3)c2=O)nc2c(C(=O)N[C@H]3CC[C@@H]3OC)cnn12 [I-1296],< 100
10,CNc1cc(Nc2cccn([C@H]3CCN(CCF)C3)c2=O)nc2c(C(=O)N[C@H]3CC[C@@H]3OC)cnn12 [I-1381],< 100
11,"CNc1cc(Nc2cccn(-c3ncccc3F)c2=O)nc2c(C(=O)O)cnn12 [I-893, 5-((3′-fluoro-2-oxo-2H-[1,2′-bipyridin]-3-yl)amino)-7-(methylamino) pyrazolo[1,5-a]pyrimidine-3-carboxylic acid]",> 1000
12,CNc1cc(Nc2cccn([C@H]3[C@@H]4COC[C@@H]43)c2=O)nc2c(C(=O)N[C@@H]3CC[C@H]3OC)cnn12 [I-1354],< 100
13,CNc1cc(Nc2cccn([C@H]3CCCN(CCF)C3)c2=O)nc2c(C(=O)N[C@@H]3C[C@@H]3F)cnn12 [I-900],< 100
14,CNc1cc(Nc2cccn3ccnc23)nc2c(C(=O)N[C@@H]3CC[C@H]3OC)cnn12 [I-1133],< 100
15,CNc1cc(Nc2cccn(-c3nn(C)cc3C)c2=O)nc2c(C(=O)N[C@H]3C[C@H]3F)cnn12 [I-405],100 to 500
16,CNc1cc(Nc2cccn([C@H]3CC[C@@](C)(O)CC3)c2=O)nc2c(C(=O)N[C@H]3C[C@H]3F)cnn12 [I-370],< 100
17,CNc1cc(Nc2cccn([C@@H]3CCC[C@@H](OC)C3)c2=O)nc2c(C(=O)N[C@H]3CC[C@@H]3OC)cnn12 [I-1331],< 100
18,CNc1cc(Nc2cccn(-c3ccc(F)cc3)c2=O)nc2c(C(N)=O)cnn12 [I-9],100 to 500
19,CNc1cc(-c2cn(C3CCOCC3)c3ncccc23)nc2c(C(=O)N[C@@H]3CC[C@H]3OC)cnn12 [I-1328],< 100
20,CNc1cc(Nc2cccn([C@@H]3CC[C@@H]3O)c2=O)nc2c(C(=O)N[C@H]3CC[C@@H]3OC)cnn12 [I-1411],< 100
21,CNc1cc(-c2cn(C3CC3)c3ncccc23)nc2c(C(=O)N[C@H]3CC[C@@H]3OC)cnn12 [I-1325],< 100
22,CNc1cc(-c2cn(CCCO)c3ncccc23)nc2c(C(=O)N[C@H]3CC[C@@H]3OC)cnn12 [I-1388],< 100
23,CNc1cc(Nc2cccn(-c3nn(C)cc3F)c2=O)nc2c(C(=O)N[C@@H]3C[C@@H]3F)cnn12 [I-1321],< 100
24,CNc1cc(Nc2cccn([C@H]3CCC[C@H](OC)C3)c2=O)nc2c(C(=O)N[C@@H]3CC[C@H]3OC)cnn12 [I-1374],< 100
25,CNc1cc(Nc2cccn(C3CC(F)(F)C3)c2=O)nc2c(C(=O)N[C@H]3CC[C@@H]3OC)cnn12 [I-1389],< 100
26,CNc1cc(Nc2cccn([C@H]3CC[C@@H]3O)c2=O)nc2c(C(=O)N[C@H]3CC[C@@H]3OC)cnn12 [I-1385],< 100
27,CNc1cc(-c2cn([C@@H]3CCN(CCF)C3)c3ncccc23)nc2c(C(=O)N[C@@H]3C[C@@H]3F)cnn12 [I-1366],< 100
28,CNc1cc(Nc2cccn([C@H]3CCC[C@H](O)C3)c2=O)nc2c(C(=O)N[C@@H]3CC[C@H]3OC)cnn12 [I-1395],< 100
